Ends that are not written are not given here.
Key:
[1] = Acrylamide quenching of Trp fluorescence in absence and presence of lipid vesicles; assay type: physicochemical; conditions: 2 μM peptide in PBS pH 7.0, λex 295 nm, λem 340, average of three replicates ± SD; for Acrylamide quenching Ksv, PCPG: 3:1 DOPC:DOPG vesicles; for Acrylamide quenching Ksv, PCPG / Acrylamide quenching Ksv, PEPG / Acrylamide quenching Ksv, PC / Acrylamide quenching Ksv, PC/Chol: 250 μM lipid; for Acrylamide quenching Ksv, PEPG: 3:1 POPE:DOPG vesicles; for Acrylamide quenching Ksv, PC: DOPC vesicles; for Acrylamide quenching Ksv, PC/Chol: DOPC:Cholesterol vesicles; for Acrylamide quenching Ksv, PBS: no lipid vesicles
Protocol: To form small unilamellar vesicles (SUVs) sonication or ethanol dilution methods were implemented ([Caputo & London, 2019]). In all cases, lipid vesicle preparation was the same. Depending on the lipid composition, appropriate volumes of lipids in chloroform were mixed in a glass tube and then allowed to dry under N2 gas for 15 minutes. The lipid films were then placed in a vacuum desiccator and allowed to dry further under a vacuum for 1 hour. For vesicles formed through ethanol dilution methods, 10 μL of pure ethanol was added to the film, and then vortex until the dissipation of the film. While continuing to vortex, the appropriate amount of PBS was added. For vesicles formed using the method of sonication, PBS was added directly to the tube while being vortexed to create multilamellar vesicles (MLVs). The MLV suspension was covered with parafilm and then placed in a high-powered bath sonicator (Avanti Lipids) and subjected to sonication for 20 minutes to create SUVs.
Acrylamide quenching was monitored by titration of samples with 10 μL aliquots of 4M acrylamide titrated into peptide samples prepared as described above. These samples contained either or [0.25] mM total lipid. After each addition of acrylamide, Trp fluorescence intensity was measured using λex = 295 nm and λem = 340. Corrections to the emission intensity were made for background subtraction, dilutions, and inner filter effects in the excitation path as described previously. The same method to calculate Ksv was used as above.
In order to gain more insight into the bilayer interactions, fluorescence quenching approaches were utilized. The peptides were exposed to the aqueous quencher acrylamide in solution or when bound to vesicles. […] Thus, peptide Trp exposure to the aqueous milieu can be gauged by the extent of quenching by acrylamide. Stern-Volmer quenching plots were created to analyze the data and Ksv (slopes of a linear fit to the data) are shown in Figure 4 and Table 2. […] In the case of L1L and L1I, there was a significant reduction in quenching between the solution (free) state of the peptide and when bound to anionic vesicles, but a much smaller reduction if any when interacting with zwitterionic vesicles. This is consistent with a more deeply buried Trp in anionic bilayers.

[2] = test system: Sheep red blood cells (RBCs); assay: Hemolysis; assay type: cell-based; conditions: ovine RBCs, 1 hour at 37 C, up to 15μM peptide, absorbance 415 nm, normalised to Triton X-100; average of three replicates
Protocol: Hemolysis on Sheep red blood cells (RBCs) was used to quantify the destabilization of membranes by leakage of hemoglobin. Sheep blood was obtained through Hemostat Laboratories and stored at 2 – 8 C. A 7 mL aliquot of whole sheep blood was mixed with 7 mL of sterile PBS at pH 7.4. The solution was sedimented via centrifugation for 7 minutes at 2500 rpm. Supernatant was removed and the pellet was resuspended to the original volume of 14 mL. This was repeated three times and the final pellet was resuspended to 14 with PBS. Next, 90 μl of the cell suspension was pipetted into all wells of a conical bottom 96-well plate. […] The absorbance of the plate was taken at 415 nm using a Spectramax M5 multimode plate reader. By using the absorbance of each well compared to the wells without additive and those with Triton-X 100 a percentage of hemolysis was calculated. […]
Hemolytic activity of venom peptides and, more broadly AMPS in general, has often been a first approximation toward assessing potential for further development. […] The peptides we co-incubated with freshly isolated ovine red blood cells and peptide-induced hemolysis was determined by comparing hemoglobin leakage from treated cells to that of untreated cells as well as cells treated with the detergent Triton X-100 as a positive control.

[3] = test system: Escherichia coli D31 CGSC 5165; assay type: cell-based; conditions: highest concentration tested 15 μM
Protocol: (§1) Six different strains of bacteria were streaked on LB-Miller agar plates from a frozen glycerol stock derived from the original samples shipped from CGSC (Coli Genetic Stock Center, Yale University) or ATCC (American Type Culture Collection) (Escherichia coli D31 CGSC 5165 ([Burman, Nordstrom & Boman, 1968]), Staphylococcus aureus ATCC 35556. Pseudomonas aeruginosa PA-01 ATCC 47085, Acinetobacter baumannii ATCC 19606). For each of the strains a liquid overnight culture was prepared using a single colony into fresh LB broth and placed in a shaking incubator for ~ 18 hours at 37 C at 225 rpm. After the incubation period, a 1:200 dilution was made in fresh LB broth and then used for experimentation. Minimal Inhibitory Concentration (MIC) determinations were performed using mid-log phase bacteria diluted to 5 x 10^5 CFU/mL. Next, 90 μL of this diluted culture was then pipetted into a sterile 96-well plate that contains serially diluted aliquots of the peptide variants to consist of a total volume of 100 μL. This plate was then incubated for 18 hours at 37 C. Bacterial growth was determined by taking an OD600 measurement using a Spectramax M5 multimode plate reader post incubation. Minimal Bactericidal Concentration (MBC) was performed by taking 1 μL of the culture from the MIC plate and then pipetting it on to a fresh LB agar plate. After plating this culture, the plate was then incubated overnight at 37 C. MBC was determined by the growth or the lack of growth from each well on the agar plate.
(§2) The ability of L1 and the hydrophobic variants to act as antimicrobials was investigated using the Minimal Inhibitory Concentration (MIC) and Minimal Bactericidal Concentration (MBC) assays as previously described ([Wiegand, Hilpert & Hancock, 2008]). The MIC is determined as the lowest concentration of peptide required to inhibit bacterial growth in solution, while the MBC is the lowest concentration required to act in a bactericidal mechanism (as opposed to bacteriostatic) and is determined by plating MIC cultures on antimicrobial-free media. Peptides were screened against E. coli, S. aureus, A. baumannii, P. aeruginosa, B. subtilis, and K. pneumoniae.

[4] = test system: K. pneumoniae; assay type: cell-based; conditions: highest concentration tested 15 μM
Protocol: as §1, §2

[5] = test system: Acinetobacter baumannii ATCC 19606; assay type: cell-based; conditions: highest concentration tested 15 μM
Protocol: as §1, §2

[6] = test system: B. subtilis; assay type: cell-based; conditions: highest concentration tested 15 μM
Protocol: as §1, §2

[7] = test system: Pseudomonas aeruginosa PA-01 ATCC 47085; assay type: cell-based; conditions: highest concentration tested 15 μM
Protocol: as §1, §2

[8] = 1 μL of MIC plate culture on LB agar, overnight at 37 C
[9] = LB broth, 5 x 10^5 CFU/mL, 18 hours at 37 C, OD600

Sequence	Acrylamide quenching Ksv, PCPG [1]	Acrylamide quenching Ksv, PEPG [1]	Acrylamide quenching Ksv, PC [1]	Acrylamide quenching Ksv, PC/Chol [1]	Acrylamide quenching Ksv, PBS [1]	Hemolysis [2]	MBC E. coli [3, 8]	MIC E. coli [3, 9]	MBC K. pneumoniae [4, 8]	MIC K. pneumoniae [4, 9]	MBC A. baumannii [5, 8]	MIC A. baumannii [5, 9]	MBC B. subtilis [6, 8]	MIC B. subtilis [6, 9]	MBC P. aeruginosa [7, 8]	MIC P. aeruginosa [7, 9]
LLKELWTKMKGAGKALLGKLKGLL [L1L]	3.51 ± 0.17 M⁻¹	2.22 ± 4.04 M⁻¹	4.08 ± 2.10 M⁻¹	8.92 ± 0.94 M⁻¹	4.26 ± 0.97 M⁻¹	do not cross the threshold for inducing hemolytic activity										
FFKEFWTKMKGAGKAFFGKFKGFF [L1F]	2.06 ± 0.97 M⁻¹	1.80 ± 0.77 M⁻¹	1.57 ± 3.49 M⁻¹	1.63 ± 0.20 M⁻¹	4.18 ± 4.79 M⁻¹	do not cross the threshold for inducing hemolytic activity	>15 µM	0.94 µM	7.5 µM	1.88 µM	0.938 µM	0.47 µM	1.88 µM	1.88 µM	>15 µM	7.5 µM
